Test results from PubChem BioAssay AID256 (DTP/NCI, 2004).
“And” between values parts separate entries of the source, which are not always exact repeats. Identical values can stand only once. Inconclusive results and toxic doses are left out.

Tested on: CD2F1 mice, L1210 leukemia ip, survival T/C
Experiment: NCI In Vivo Anticancer Drug Screen. Data for tumor model L1210 Leukemia (intraperitoneal) in CD2F1 (CDF1) mice
Conditions: higher = longer survival
In short: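 Implant tumor; dose compound or vehicle; measure endpoint in both groups; report treated divided by control.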

[1] = endpoint: mean survival time, dose: 50.0 mg/kg/injection, schedule: Q01DX009 (ip), vehicle: Klucel (hydroxypropylcellulose) (HPC)
[2] = endpoint: mean survival time, dose: 25.0 mg/kg/injection, schedule: Q04DX002 (ip), vehicle: saline with Tween-80
[3] = endpoint: mean survival time, dose: 50.0 mg/kg/injection, schedule: Q04DX002 (ip), vehicle: saline with Tween-80
[4] = endpoint: mean survival time, dose: 100.0 mg/kg/injection, schedule: Q04DX002 (ip), vehicle: saline with Tween-80
[5] = endpoint: mean survival time, dose: 50.0 mg/kg/injection, schedule: Q01DX001 (ip), vehicle: saline
[6] = endpoint: mean survival time, dose: 100.0 mg/kg/injection, schedule: Q01DX001 (ip), vehicle: saline

For `N#CC(=C1SCS1)[N+](=O)[O-]`, the T/C (endpoint: mean survival time, dose: 0.37 mg/kg/injection, schedule: Q01DX009 (ip), vehicle: saline with Tween-80) was 101 % of control and 102 % of control, the T/C (endpoint: mean survival time, dose: 0.75 mg/kg/injection, schedule: Q01DX009 (ip), vehicle: saline with Tween-80) was 101 % of control and the T/C (endpoint: mean survival time, dose: 1.5 mg/kg/injection, schedule: Q01DX009 (ip), vehicle: saline with Tween-80) was 100 % of control and 102 % of control. For the same compound, the T/C (endpoint: mean survival time, dose: 3.0 mg/kg/injection, schedule: Q01DX009 (ip), vehicle: saline with Tween-80) was 102 % of control and 104 % of control, the T/C (endpoint: mean survival time, dose: 6.0 mg/kg/injection, schedule: Q01DX009 (ip), vehicle: saline with Tween-80) was 108 % of control and the T/C (endpoint: mean survival time, dose: 12.0 mg/kg/injection, schedule: Q01DX009 (ip), vehicle: saline with Tween-80) was 106 % of control.

`O=[N+]([O-])c1cccc(/C=C/c2ccccn2)c1` was tested, and the T/C [1] was 98 % of control, the T/C (endpoint: mean survival time, dose: 100.0 mg/kg/injection, schedule: Q01DX009 (ip), vehicle: Klucel (hydroxypropylcellulose) (HPC)) was 98 % of control and the T/C (endpoint: mean survival time, dose: 200.0 mg/kg/injection, schedule: Q01DX009 (ip), vehicle: Klucel (hydroxypropylcellulose) (HPC)) was 90 % of control.

With `[Cl][Pt+2][Cl].[NH-]CC([NH-])c1ccc2oc3ccccc3c2c1` (stereo unspecified) the T/C (endpoint: median survival time, dose: 10.0 mg/kg/injection, schedule: Q04DX003 (ip), vehicle: saline) was 100 % of control, the T/C (endpoint: median survival time, dose: 20.0 mg/kg/injection, schedule: Q04DX003 (ip), vehicle: saline) was 94 % of control and the T/C (endpoint: median survival time, dose: 40.0 mg/kg/injection, schedule: Q04DX003 (ip), vehicle: saline) was 105 % of control. The T/C (endpoint: median survival time, dose: 80.0 mg/kg/injection, schedule: Q04DX003 (ip), vehicle: saline with Tween-80) was 107 % of control and the T/C (endpoint: median survival time, dose: 80.0 mg/kg/injection, schedule: Q04DX003 (ip), vehicle: saline) was 110 % of control.

With `CNC(=O)N(C)CC(O)C(O)C(O)C(O)CO` (stereo unspecified) the T/C (endpoint: mean survival time, dose: 100.0 mg/kg/injection, schedule: Q04DX003 (ip), vehicle: saline with Tween-80) was 97 % of control, the T/C (endpoint: mean survival time, dose: 200.0 mg/kg/injection, schedule: Q04DX003 (ip), vehicle: saline with Tween-80) was 104 % of control and the T/C (endpoint: mean survival time, dose: 400.0 mg/kg/injection, schedule: Q04DX003 (ip), vehicle: saline with Tween-80) was 106 % of control.

For `Cc1ccc(C(=O)c2ccc(C)cc2)cc1`, the T/C (endpoint: mean survival time, dose: 100.0 mg/kg/injection, schedule: Q01DX009 (ip), vehicle: saline) was 90 % of control, the T/C (endpoint: mean survival time, dose: 100.0 mg/kg/injection, schedule: Q04DX002 (ip), vehicle: saline) was 93 % of control and the T/C (endpoint: mean survival time, dose: 200.0 mg/kg/injection, schedule: Q01DX009 (ip), vehicle: saline) was 93 % of control. For the same compound, the T/C (endpoint: mean survival time, dose: 200.0 mg/kg/injection, schedule: Q04DX002 (ip), vehicle: saline) was 95 % of control, the T/C (endpoint: mean survival time, dose: 400.0 mg/kg/injection, schedule: Q01DX009 (ip), vehicle: saline) was 93 % of control and the T/C (endpoint: mean survival time, dose: 400.0 mg/kg/injection, schedule: Q04DX002 (ip), vehicle: saline) was 95 % of control.

For `CC(=O)C1=C(O)C2(O)C(=O)c3c(c(C)c4ccc(C)c(O)c4c3O)CC2C(N)C1=O` (stereo unspecified), the T/C (endpoint: mean survival time, dose: 3.75 mg/kg/injection, schedule: Q01DX009 (ip), vehicle: saline + alcohol) was 102 % of control and 105 % of control, the T/C (endpoint: mean survival time, dose: 7.3 mg/kg/injection, schedule: Q01DX009 (ip), vehicle: saline + alcohol) was 103 % of control and the T/C (endpoint: mean survival time, dose: 7.5 mg/kg/injection, schedule: Q01DX009 (ip), vehicle: saline + alcohol) was 107 % of control. The T/C (endpoint: mean survival time, dose: 15.0 mg/kg/injection, schedule: Q01DX009 (ip), vehicle: saline + alcohol) was 107 % of control and 108 % of control, the T/C (endpoint: mean survival time, dose: 30.0 mg/kg/injection, schedule: Q01DX009 (ip), vehicle: saline + alcohol) was 115 % of control and the T/C (endpoint: mean survival time, dose: 60.0 mg/kg/injection, schedule: Q01DX009 (ip), vehicle: saline + alcohol) was 107 % of control and 111 % of control.

With `Cc1nnc(NS(=O)(=O)c2ccc(N=Nc3nc4[nH]c(N)nc(=S)c4[nH]3)cc2)s1` the T/C (endpoint: mean survival time, dose: 12.5 mg/kg/injection, schedule: Q01DX009 (ip), vehicle: Klucel (hydroxypropylcellulose) (HPC)) was 110 % of control, the T/C (endpoint: mean survival time, dose: 25.0 mg/kg/injection, schedule: Q01DX009 (ip), vehicle: Klucel (hydroxypropylcellulose) (HPC)) was 116 % of control and the T/C [1] was 122 % of control.

`C=CC(C)(C)S(=O)[O-].[C-]#[O+].[C-]#[O+].[C-]#[O+].[Mn].[c-]1[c-][c-][cH-][c-]1` was tested, and the T/C [2] was 93 % of control, the T/C [3] was 86 % of control and the T/C [4] was 93 % of control.

`CN1CCN(Cc2cn(C3CC(O)C(CO)O3)c(=O)[nH]c2=O)CC1` (stereo unspecified) was tested, and the T/C (endpoint: mean survival time, dose: 12.5 mg/kg/injection, schedule: Q01DX005 (ip), vehicle: water) was 96 % of control, the T/C (endpoint: mean survival time, dose: 25.0 mg/kg/injection, schedule: Q01DX005 (ip), vehicle: water) was 93 % of control and the T/C (endpoint: mean survival time, dose: 50.0 mg/kg/injection, schedule: Q01DX005 (ip), vehicle: water) was 91 % of control. The T/C (endpoint: mean survival time, dose: 100.0 mg/kg/injection, schedule: Q01DX005 (ip), vehicle: water) was 95 % of control and the T/C (endpoint: mean survival time, dose: 200.0 mg/kg/injection, schedule: Q01DX005 (ip), vehicle: water) was 90 % of control.

With `CC#CC(=O)SCCNC(=O)CCNC(C)=O` the T/C (endpoint: mean survival time, dose: 12.5 mg/kg/injection, schedule: Q01DX009 (ip), vehicle: saline with Tween-80) was 112 % of control, the T/C (endpoint: mean survival time, dose: 25.0 mg/kg/injection, schedule: Q01DX009 (ip), vehicle: saline with Tween-80) was 102 % of control and the T/C (endpoint: mean survival time, dose: 25.0 mg/kg/injection, schedule: Q04DX003 (ip), vehicle: saline) was 105 % of control. For the same compound, the T/C (endpoint: mean survival time, dose: 50.0 mg/kg/injection, schedule: Q01DX009 (ip), vehicle: saline with Tween-80) was 108 % of control, the T/C (endpoint: mean survival time, dose: 50.0 mg/kg/injection, schedule: Q04DX003 (ip), vehicle: saline) was 112 % of control and the T/C (endpoint: mean survival time, dose: 100.0 mg/kg/injection, schedule: Q01DX009 (ip), vehicle: saline with Tween-80) was 119 % of control. For the same compound, the T/C (endpoint: mean survival time, dose: 100.0 mg/kg/injection, schedule: Q04DX003 (ip), vehicle: saline) was 103 % of control.

With `COC(=O)c1n[nH]c(C(C)C)c1N=NN(C)C` the T/C (endpoint: mean survival time, dose: 37.5 mg/kg/injection, schedule: Q01DX009 (ip), vehicle: saline with Tween-80) was 106 % of control, the T/C (endpoint: mean survival time, dose: 75.0 mg/kg/injection, schedule: Q01DX009 (ip), vehicle: saline with Tween-80) was 121 % of control and the T/C (endpoint: mean survival time, dose: 150.0 mg/kg/injection, schedule: Q01DX009 (ip), vehicle: saline with Tween-80) was 92 % of control.

For `C[n+]1cnc2c(ccn2C2OC(CO)C(O)C2O)c1N` (stereo unspecified), the T/C [5] was 102 % of control, the T/C [6] was 100 % of control and the T/C (endpoint: mean survival time, dose: 200.0 mg/kg/injection, schedule: Q01DX001 (ip), vehicle: saline) was 102 % of control. For the same compound, the T/C (endpoint: mean survival time, dose: 400.0 mg/kg/injection, schedule: Q01DX001 (ip), vehicle: saline) was 100 % of control.

With `C=CCOCC(O)C[As](=O)(O)c1cccc(Cl)c1` (stereo unspecified) the T/C (endpoint: mean survival time, dose: 6.25 mg/kg/injection, schedule: Q04DX003 (ip), vehicle: saline with Tween-80) was 103 % of control and the T/C (endpoint: mean survival time, dose: 12.5 mg/kg/injection, schedule: Q04DX003 (ip), vehicle: saline with Tween-80) was 119 % of control.

With `Oc1ccc(Br)cc1/C=N/c1nc(-c2ccccc2)cs1.Oc1ccc(Br)cc1/C=N/c1nc(-c2ccccc2)cs1.[Zn]` the T/C (endpoint: mean survival time, dose: 25.0 mg/kg/injection, schedule: Q01DX001 (ip), vehicle: saline) was 100 % of control, the T/C [5] was 100 % of control and the T/C [6] was 100 % of control.

In the case of `CCCCCCCCCCCCCCCCCCN1C(=O)C2C3CCC(O3)C2C1=O` (stereo unspecified), the T/C [2] was 98 % of control, the T/C [3] was 98 % of control and the T/C [4] was 94 % of control.

For `COc1nc(NC2OCC(O)C(O)C2O)c(Br)c(=O)n1C` (stereo unspecified), the T/C (endpoint: median survival time, dose: 12.5 mg/kg/injection, schedule: Q01DX005 (ip), vehicle: saline with Tween-80) was 100 % of control, the T/C (endpoint: median survival time, dose: 25.0 mg/kg/injection, schedule: Q01DX005 (ip), vehicle: saline with Tween-80) was 101 % of control and the T/C (endpoint: median survival time, dose: 50.0 mg/kg/injection, schedule: Q01DX005 (ip), vehicle: saline with Tween-80) was 101 % of control. The T/C (endpoint: median survival time, dose: 100.0 mg/kg/injection, schedule: Q01DX005 (ip), vehicle: saline with Tween-80) was 101 % of control and the T/C (endpoint: median survival time, dose: 200.0 mg/kg/injection, schedule: Q01DX005 (ip), vehicle: saline with Tween-80) was 101 % of control.

For `NC(=O)c1c[se]c(C2OC(CO)C(O)C2O)n1` (stereo unspecified), the T/C (endpoint: median survival time, dose: 12.5 mg/kg/injection, schedule: Q01DX009 (ip), vehicle: water) was 174 % of control and 187 % of control, the T/C (endpoint: median survival time, dose: 25.0 mg/kg/injection, schedule: Q01DX009 (ip), vehicle: water) was 170 % of control and 193 % of control and the T/C (endpoint: median survival time, dose: 50.0 mg/kg/injection, schedule: Q01DX009 (ip), vehicle: water) was 206 % of control and 233 % of control. For the same compound, the T/C (endpoint: median survival time, dose: 100.0 mg/kg/injection, schedule: Q01DX009 (ip), vehicle: water) was 216 % of control and 233 % of control.
